Results as given in article PMC10574532, “Revisiting Supersaturation of a Biopharmaceutical Classification System IIB Drug: Evaluation via a Multi-Cup Dissolution Approach and Molecular Dynamic Simulation” (Molecules, 2023).
Values after ≈ are worked out from the molar mass of the structure shown.

Tests used:
[1] = IVIVC prediction based on DGIM in vitro absorption data; parameters: species or system Male Sprague Dawley rats; conditions: predicted through IVIVC from DGIM
Procedure: (§1) The in vitro–in vivo correlation (IVIVC) was performed using Phoenix 8.1 IVIVC Toolkit (Certara, Princeton, NJ, USA). […] Double Weibull Dissolution Model was selected for fitting both dissolution data from the absorptive phase of DGIM and USP II. The absorption data were obtained via deconvolution analysis of the drug plasma concentration–time curves. The reference formulation for deconvolution to estimate oral absorption was based on the in vivo data of the i.v. group. Additionally, both control group and PVPVA group’s in vitro data were used to establish a correlation between dissolved fraction and absorbed fraction, while the HPMC group’s data served as external validation. The maximum number of unit impulse response exponentials defaulted to three. With WinNonlin Generated Initial Parameter and Winnonlin Bounds, the best correlation model was selected according to the lowest AIC. Validation parameters included AUClast calculated with linear trapezoidal method along with linear interpolation averaging as mean values were adopted. The process of prediction followed the same parameters above. The prediction error (PE) was evaluated following the FDA’s guidance.

In vivo pharmacokinetics = assay: In vivo pharmacokinetics; parameters: species or system Male Sprague Dawley rats; conditions: plasma, rat
Procedure: The animal study was conducted in accordance with the National Research Council’s Guide for the Care and Use of Laboratory Animals and approved by the Ethics Committee of Chengdu University of Traditional Chinese Medicine (Approval Code: 2021-76). All procedures were performed in compliance with relevant regulations and guidelines. Male Sprague Dawley rats weighing 180–220 g were fasted overnight (12 h) with free access to water, then randomly assigned to 4 groups (n = 6). […] Approximately 50 μL of blood samples were collected into EDTA-K2-treated Eppendorf tubes at time points ranging from 0.083, 0.25, 0.5, 1, 2, 4, and 6 to 10 h after dosing. The blood samples were centrifuged at 2000× g and 4 °C for 10 min, followed by collection and storage of the supernatant plasma at −20 °C until analysis. […] A protein precipitation method was employed to pretreat 10 μL plasma with 430 μL acetonitrile, 50 μL internal standard solution (gefitinib), and 10 μL mobile phase. After centrifugation at 10,000× g for 10 min at 4 °C, the supernatant was injected into the apparatus and then separated by a Thermo Hypersil C18 chromatographic column (3 μm, 2.1 mm × 50 mm) at 40 °C. […] Phoenix 8.1 WinNonlin Toolkit (Certara, Princeton, NJ, USA) was employed to conduct the non-compartment model of pharmacokinetic analysis.

[2] = pH-dependent equilibrium solubility of ketoconazole in biorelevant fluids (FaSSIF) with or without precipitation inhibitor; type: physicochemical; conditions: modified Henderson-Hasselbalch fit, 37 °C
Procedure: Specifically, FaSSIF was prepared with different proportions of 0.2 mol/L disodium hydrogen phosphate (Na2HPO4) solution and 0.1 mol/L citric acid (C6H8O7) solution, with commercial standard FaSSIF powder. […] The final pH of each solution was measured before centrifugation at 10,000× g for 10 min at 37 °C. […] A sample volume of 10 μL was injected and subsequently separated on a Kromasil C18 column (5 μm, 4.6 × 250 mm) maintained at a temperature of 30 °C. The mobile phase consisted of a modified phosphoric acid solution containing 10 mM KH2PO4 in water (pH adjusted to 3.0), along with acetonitrile in a ratio of 50:50 (v/v). The flow rate employed was set at 1 mL/min while detection occurred at a wavelength of 254 nm.

[3] = IVIVC prediction based on USP II in vitro absorption data; parameters: species or system Male Sprague Dawley rats; conditions: predicted through IVIVC from USP II
Procedure: as §1

[4] = Supersaturation-precipitation and absorption in the dynamic gastrointestinal model (DGIM); type: physicochemical
Procedure: The DGIM is achieved through a system consisting of 3 dissolution cups, which represent stomach, duodenum, and jejunum, respectively, filled with corresponding biorelevant fluid. N-octanol serves as the absorptive phase. The pumps facilitate fluid transfer, as depicted by arrows in Figure 9. In situ drug concentration is determined using fiber optical probes, and dynamic pH value of the aqueous fluid is monitored by pH electrodes. The parameters of DGIM can be adjusted to meet some special physiological conditions.
In this study, most of the parameters were based on the GIS proposed by Hens et al.. The pH values in the three cups were adjusted to 2.0, 5.9, and 6.1, respectively, to simulate the physiological digestive fluid in the stomach, duodenum, and jejunum of the fasted rats. […] The secretions used were biorelevant fluids that had been concentrated four times and pumped at a rate of 1 mL/min. Considering an average gastric half-emptying time ( th ) of approximately eight minutes, pump A transported gastric fluid into the duodenal cup at this first-order rate. Ensuring that the volume of biorelevant fluid in the duodenal cup was maintained at a constant level of 50 mL, any excess fluid was transported to the jejunal cup through pump B. Therefore, we can represent the rates va for pump A and vb for pump B at time t using following equations:(5) va=ln2×Vg,0×exp−ln2×t/th+1 (6) vb=va+1
The pump rate was regulated by a mono-chip computer, which was programmed to dynamically adjust the rate every second in accordance with first-order kinetics. […] The pumps worked until 40 min because, at that time, the solution in the gastric cup was less than 10 mL. However, the experiment continued for 3 h. The paddles were stirred at a rate of 50 rpm. All the cups were in a water bath at 37 °C.
Fiber optic probes with a 1 mm tip were connected to the instrument and employed for the detection of the 270–275 nm wavelength band. This detection specifically targeted the area under the curve (AUC) of the second derivatized absorbance curves. Calibration was performed using the accumulated addition method. The standard curves encompassed a wide concentration range in the dissolution process while ensuring linearity with an r^2 > 0.999.

[5] = phosphate buffer ref 19; cited from earlier work
[6] = aqueous phase of the duodenal cup

In the case of `CC(=O)N1CCN(c2ccc(OCC3COC(Cn4ccnc4)(c4ccc(Cl)cc4Cl)O3)cc2)CC1` (centres unmarked) [ketoconazole, Ketoconazole], the “AUC, Prediction” value [1] is reported as 114,652 h·ng·mL^−1, the “Cmax, Prediction” value [1] is reported as 45,529 ng·mL^−1 and the bioavailability (In vivo pharmacokinetics; male, Sprague Dawley, oral 10 mg/kg vs i.v. 2.5 mg/kg, read-out: absolute bioavailability) is reported as 70%. For the same compound, the AUC (In vivo pharmacokinetics; male, Sprague Dawley, po, 10 mg/kg, read-out: AUC, Observation) was 113 µg·h/mL, the Cmax (In vivo pharmacokinetics; male, Sprague Dawley, po, 10 mg/kg, read-out: Cmax, Observation) was 41.3 µg/mL and the “AUC, Observation” value (In vivo pharmacokinetics; oral 10 mg/kg ketoconazole) was 112,853 h·ng·mL^−1. For the same compound, the “Cmax, Observation” value (In vivo pharmacokinetics; oral 10 mg/kg ketoconazole) was 41,300 ng·mL^−1, the pKa ([2]; FaSSIF (biorelevant fluid), read-out: pKa of the fitted pH-solubility function) was 6.32 and the solubility at 24 h ([2]; FaSSIF, read-out: CU (concentration of unionized form) of the fitted pH-solubility function) was 7.88 µg/mL (≈ 14.8 µM). For the same compound, the “AUC, Prediction” value [3] was 108,727 h·ng·mL^−1, the “Cmax, Prediction” value [3] was 45,702 ng·mL^−1 and the “DSAUC (area under the degree of supersaturation over time curve)” value ([4]; Duodenal) was 3.715. The “DSAUC (area under the degree of supersaturation over time curve)” value ([4]; Jejunal) was 5.452, the major precipitation time [4, 6] was 19 min and the “maximum concentration of ketoconazole” value [4, 6] was 1049 µg/mL. For the same compound, the “maximum concentration of ketoconazole” value ([4]; jejunal aqueous phase) was 282 µg/mL and the “pKa, reported value” [5] was 6.5.
